Test results from US20240342176A1, “PHARMACEUTICAL COMBINATION AND APPLICATION THEREOF” (GUANGZHOU JOYO PHARMATECH CO., LTD, priority 2021, published 2024).

Tests used:
human Treg cells = experiment: In vitro pharmacodynamic experiment on human Treg cells (flow cytometry CD4, CD25, Foxp3); type: cell-based; conditions: for IC50: Homo sapiens, 120 h, five days of compound incubation, CD4, CD25, Foxp3 positive counts vs DMSO control, read-out: IC50, inhibitory activity on human Treg cells
Description: • 1. Research purpose: The in vitro pharmacodynamic experiment of compound I on human Treg cells. • 2. […] Experimental methods: • 1) A 96-well cell culture plate was coated with 10 μg/mL anti-human CD3, 50 μL per well, incubated at 37° C. for three hours, and then rinsed with X-VIVO medium. • 2) Human peripheral blood mononuclear cells (purchased from Hemacare) were resuscitated and stained with CellTrace Violet (CTV). • 3) After staining, Human Naive CD4+ T cells were isolated using the Human naïve CD4 isolation kit. • 4) IL-2 (10 ng/ml), CD28 (2 μg/mL), and TGF-b (1 ng/mL) were added to the cell culture medium, and different concentrations of the test compounds were added at the same time. • 5) After five days of compound incubation, CD4, CD25, and Foxp3 were detected by flow cytometry. The positive counts of CD4, CD25, and Foxp3 were calculated, and the relative survival rate and IC50 were calculated compared with the DMSO control group. • 4. Experimental results: • The experiment used the flow cytometry method to determine the in vitro pharmacodynamic experiment of the test compound I on human Treg cells. The detection results are shown in A and B of FIG. 5 and Table 3.

PI3Kδ = PI3Kδ (Homo sapiens (Human), UniProt O00329); experiment: ADP-Glo chemiluminescence enzymatic activity assay, PI3Kδ; type: biochemical; conditions: mean ± SD, N = 3, ATP 40 μM
PI3Kδ, sequence (O00329 whole entry, looked up): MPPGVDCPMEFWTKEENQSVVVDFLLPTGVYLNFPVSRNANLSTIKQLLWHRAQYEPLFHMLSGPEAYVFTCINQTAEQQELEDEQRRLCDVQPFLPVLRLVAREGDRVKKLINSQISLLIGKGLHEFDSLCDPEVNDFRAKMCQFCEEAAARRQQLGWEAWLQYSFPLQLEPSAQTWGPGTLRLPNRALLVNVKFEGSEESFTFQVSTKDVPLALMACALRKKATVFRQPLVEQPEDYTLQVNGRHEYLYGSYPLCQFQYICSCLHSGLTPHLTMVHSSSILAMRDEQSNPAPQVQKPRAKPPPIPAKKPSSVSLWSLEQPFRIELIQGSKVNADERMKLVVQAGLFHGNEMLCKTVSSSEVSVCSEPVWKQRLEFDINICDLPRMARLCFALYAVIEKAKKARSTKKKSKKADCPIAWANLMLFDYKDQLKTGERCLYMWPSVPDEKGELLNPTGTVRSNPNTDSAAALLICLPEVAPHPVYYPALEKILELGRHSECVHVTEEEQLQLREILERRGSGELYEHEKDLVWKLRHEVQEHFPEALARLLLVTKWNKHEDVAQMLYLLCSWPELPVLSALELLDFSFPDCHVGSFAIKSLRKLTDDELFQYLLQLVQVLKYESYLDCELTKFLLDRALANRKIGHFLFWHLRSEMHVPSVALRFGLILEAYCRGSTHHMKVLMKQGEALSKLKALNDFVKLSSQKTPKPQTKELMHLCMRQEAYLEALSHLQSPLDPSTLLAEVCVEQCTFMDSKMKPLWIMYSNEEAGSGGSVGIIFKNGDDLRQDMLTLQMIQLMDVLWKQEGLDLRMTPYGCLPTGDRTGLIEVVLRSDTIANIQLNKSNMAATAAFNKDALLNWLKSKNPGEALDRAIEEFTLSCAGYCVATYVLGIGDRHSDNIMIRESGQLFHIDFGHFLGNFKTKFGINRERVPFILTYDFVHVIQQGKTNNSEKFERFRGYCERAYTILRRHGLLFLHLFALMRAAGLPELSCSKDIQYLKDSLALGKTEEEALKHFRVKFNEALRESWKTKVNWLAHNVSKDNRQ
PI3Kδ, sequence (P27986 whole entry partner, looked up): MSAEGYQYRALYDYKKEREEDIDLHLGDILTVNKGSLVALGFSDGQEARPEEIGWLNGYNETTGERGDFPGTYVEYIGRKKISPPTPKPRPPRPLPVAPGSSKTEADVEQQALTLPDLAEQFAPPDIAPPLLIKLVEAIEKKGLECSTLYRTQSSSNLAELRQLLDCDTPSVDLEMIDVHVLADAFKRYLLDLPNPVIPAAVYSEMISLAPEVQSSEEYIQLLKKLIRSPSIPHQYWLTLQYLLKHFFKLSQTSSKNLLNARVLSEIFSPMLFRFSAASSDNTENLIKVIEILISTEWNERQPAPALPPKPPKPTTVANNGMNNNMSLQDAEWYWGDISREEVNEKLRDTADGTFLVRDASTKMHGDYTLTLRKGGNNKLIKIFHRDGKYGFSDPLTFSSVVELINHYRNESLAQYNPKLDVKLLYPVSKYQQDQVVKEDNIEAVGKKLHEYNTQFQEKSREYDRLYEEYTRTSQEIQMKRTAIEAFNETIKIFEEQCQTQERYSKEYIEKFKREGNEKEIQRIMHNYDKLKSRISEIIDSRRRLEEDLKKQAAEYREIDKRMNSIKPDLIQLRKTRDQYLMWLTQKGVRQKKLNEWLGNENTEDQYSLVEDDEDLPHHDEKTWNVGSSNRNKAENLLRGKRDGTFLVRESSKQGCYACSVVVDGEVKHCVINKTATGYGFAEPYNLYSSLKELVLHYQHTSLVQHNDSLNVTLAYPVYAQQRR
Description: (§1) • 1. Research purpose: The inhibitory effect of compound I on the enzymatic activity of PI3Kδ and PI3Kγ in vitro. • 2. Experimental materials: • (1) Main instrument: Envision (PerkinElmer-2104) • (2) Main reagents: ADP-Glo kinase kit (purchased from Promega), PI3Kδ (P1108/P85a) (purchased from Millipore), and PI3Kγ (P120γ) (purchased from Millipore). • 3. Experimental methods: • 1) Preparation of buffer salt solution: A 10× buffer salt solution with a pH of 7.5 containing 500 mM HEPES, 500 mM NaCl, and 30 mM MgCl2 was prepared with ultrapure water and stored at 4° C. for later use. Before use, the above buffer salt solution was diluted to a 3.33× buffer salt solution and BSA was added to a final concentration of 0.333 mg/mL. • 2) A 100× reference compound (compound I) was prepared with a starting concentration of 100 nM, diluted in a 3-fold serial dilution to 10 concentrations and transferred to the corresponding 384 microwell plate at 50 nL/well. In the control group, 50 nL/well of DMSO was added. • 3) 3.33×PI3K solutions were prepared with the 3.33× buffer salt solution, PI3Kδ at a final concentration of 0.25 nM, PI3Kγ at a final concentration of 0.4 nM. A 3.33×PIP2:3PS solution was prepared, mixed with the enzyme solutions at a volume ratio of 1:1, and added to the 384 microwell plate in 3 μL/well. […] The luminescence value was read using Envision. • 4. […]

PI3Kγ = PI3Kγ (Homo sapiens (Human), UniProt P48736); experiment: ADP-Glo chemiluminescence enzymatic activity assay, PI3Kγ; type: biochemical; conditions: mean ± SD, N = 3, ATP 25 μM
PI3Kγ, sequence (P48736 whole entry): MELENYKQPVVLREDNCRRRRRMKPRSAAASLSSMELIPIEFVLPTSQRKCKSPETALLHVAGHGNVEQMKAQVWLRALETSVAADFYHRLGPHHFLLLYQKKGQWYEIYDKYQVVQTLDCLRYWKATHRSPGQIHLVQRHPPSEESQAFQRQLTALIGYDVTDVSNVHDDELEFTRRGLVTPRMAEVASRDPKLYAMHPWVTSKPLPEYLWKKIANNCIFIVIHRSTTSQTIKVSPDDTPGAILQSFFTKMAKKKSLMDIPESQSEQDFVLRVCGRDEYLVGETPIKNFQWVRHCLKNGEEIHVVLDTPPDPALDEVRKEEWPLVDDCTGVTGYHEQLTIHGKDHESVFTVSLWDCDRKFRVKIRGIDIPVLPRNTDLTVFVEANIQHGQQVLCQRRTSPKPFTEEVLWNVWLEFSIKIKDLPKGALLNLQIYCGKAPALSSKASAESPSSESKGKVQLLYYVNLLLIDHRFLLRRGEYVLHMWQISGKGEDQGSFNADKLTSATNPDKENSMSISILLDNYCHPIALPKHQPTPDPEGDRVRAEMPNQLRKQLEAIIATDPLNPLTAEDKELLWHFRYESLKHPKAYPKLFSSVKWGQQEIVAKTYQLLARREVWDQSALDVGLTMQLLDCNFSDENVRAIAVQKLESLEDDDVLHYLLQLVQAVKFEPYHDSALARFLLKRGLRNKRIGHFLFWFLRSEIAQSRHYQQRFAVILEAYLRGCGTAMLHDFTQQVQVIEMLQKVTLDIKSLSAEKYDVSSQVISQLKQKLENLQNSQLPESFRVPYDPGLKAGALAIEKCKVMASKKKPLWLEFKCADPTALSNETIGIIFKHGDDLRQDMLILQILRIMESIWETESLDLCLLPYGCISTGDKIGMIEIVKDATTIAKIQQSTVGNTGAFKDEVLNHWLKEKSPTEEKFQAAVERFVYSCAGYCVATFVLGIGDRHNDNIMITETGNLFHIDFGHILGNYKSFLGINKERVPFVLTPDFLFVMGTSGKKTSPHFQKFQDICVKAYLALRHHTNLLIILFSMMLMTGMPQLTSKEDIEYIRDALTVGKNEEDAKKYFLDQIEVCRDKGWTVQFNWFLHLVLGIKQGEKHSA
Description: as §1

| SMILES | IC50 (human Treg cells) [nM] | inhibitory activity on human Treg cells relative to Idelalisib (human Treg cells; ratio of IC50 values) [times] | IC50 (PI3Kδ) [nM] | IC50 (PI3Kγ) [nM] |
| --- | --- | --- | --- | --- |
| COCCOc1cnc2ccc(-c3cnc(OC)c(NS(=O)(=O)c4sc(C)nc4C)c3)cn2c1=O [Compound I] | 0.01 | 3172 | 0.18 ± 0.01 | 0.29 ± 0.02 |
| CC[C@H](Nc1ncnc2[nH]cnc12)c1nc2cccc(F)c2c(=O)n1-c1ccccc1 [Idelalisib, reference compound] | 31.7 | – | – | – |
